# Data from paper PMC7904827 (Scientific Reports, 2021).
# Where a name gives a salt, the structure may show the parent alone.
# How the values were obtained:
# [1] = Process stability in untreated plasma; format: in vitro ADME, rabbit; details: within 10 min
# Experimental: Linearity was tested within the concentration range of 0.2 – 100 μM for all compounds in DMEM, the buffer and plasma and 10-100 pmol/106cells in NVCMs (method I). For method II, the concentration ranges 0.01-15 μM and 0.01-1 μM were used for determination of ICRF-193 and ICRF-193met in plasma, respectively. Unweighted and weighted (1/x and 1/x2) linear regression was applied to obtain the best fitting calibration model. […]
# (§1) Stability of the analytes was examined at low and high concentrations. Process s tability (n=3) in plasma was tested for 20 min at either laboratory temperature (23 °C) or on ice (4 °C, only for GK-667). Post-preparation stability was examined for 8 to 10 h in an autosampler (8 °C, n=3) for all treated matrices. […]
# [2] = ICRF-193 release from the prodrugs during incubation in DMEM (thermomixer, UHPLC-MS/MS); format: in vitro ADME; details: 100 µM, 37 °C
# Experimental: All samples were spiked with the internal standards. DMEM or buffer (100 μL) was diluted with an ice-cold methanol/water mixture (20:80, v/v), mixed and analyzed. Plasma (50 μL) was precipitated with ice-cold methanol (1:5, v/v), mixed (20 s) and centrifuged (10 min, 10,000 rpm, 4 °C). NVCM pellets (4.8 × 10^6 cells) were precipitated with ice-cold methanol (250 μL), mixed (20 s), sonicated in a cold ultrasonic bath (75 s), mixed (30 s) and centrifuged (10 min, 10,000 rpm, 4 °C). The supernatants from the plasma and NVCM extractions were filtered (0.22 μm, PVDF) prior to analysis. For assay of the prodrugs, the samples were acidified with formic acid to a final concentration of 0.5%.
# The samples were analyzed using two UHPLC instruments both coupled to a triple quadrupole mass spectrometer. […] Positive ionization mode was used in both methods. The analytical columns tested are characterized in the Supplementary materials.
# The prodrugs (100 μM) were incubated (37 °C) in DMEM in a thermomixer (Thermomixer Comfort, Eppendorf, Germany) under gentle mixing (350 rpm) for 48 h.
# From all of the above described experiments, samples were taken at predefined intervals, treated and immediately analyzed. All experiments were performed in four replicates, and the results are expressed as the mean ± SD.
# [3] = Post-preparation stability of the extracted analytes in autosampler (8 °C); format: physicochemical
# Experimental: Linearity was tested within the concentration range of 0.2 – 100 μM for all compounds in DMEM, the buffer and plasma and 10-100 pmol/106cells in NVCMs (method I). For […]
# Unweighted and weighted (1/x and 1/x2) linear regression was applied to obtain the best fitting calibration model.
# Accuracy and precision were calculated at 4 levels (LLOQ, low, medium and high concentrations). Five quality control (QC) samples were used for all concentration levels. […]
# as §1
# plasma was tested at -80 °C and the freezing cycle was repeated twice (n=3). The buffer, DMEM, NVCMs and plasma samples containing GK -667 from in vitro studies and from first intervals of pharmacokinetic study (up to 20 min) w ere treated and analyzed immediately after […]
structure (smiles),measurement,setting,value
"C[C@H]([C@H](C)N1CC(=O)N(COC(=O)CN)C(=O)C1)N1CC(=O)N(COC(=O)CN)C(=O)C1 [GK-667, meso-2,3-bis(4-(2-aminoacetoxymethyl)-3,5-dioxopiperazin-1-yl)butane tetrahydrochloride]",GK-667 decomposed,[1]; plasma samples at room temperature (23 °C),~50%
same,GK-667 decomposed,[1]; plasma samples on ice,less than 6%
same,conversion to the inactive metabolite ICRF-193met,"[2]; AUC0–3 h and AUC0–48 h, compared with the other prodrugs",lowest conversion
same,AUC0–3 h of ICRF-193 concentrations,[2]; GK-667 compared with GK-678,no statistically significant differences
same,AUC0–48 h of ICRF-193 concentrations,[2]; GK-667 compared with GK-678,significantly higher
same,percentage of initial concentration in autosampler,"[3]; extracted DMEM, 100 µM, 0 h",100.1%
same,percentage of initial concentration in autosampler,"[3]; extracted DMEM, 100 µM, 8 h",92.2%
same,percentage of initial concentration in autosampler,"[3]; extracted DMEM, 100 µM, 10 h",90.2%
same,percentage of initial concentration in autosampler,"[3]; extracted NVCMs, 100 pmol/106 cells, 0 h",103.3%
same,percentage of initial concentration in autosampler,"[3]; extracted NVCMs, 100 pmol/106 cells, 8 h",105.2%
same,percentage of initial concentration in autosampler,"[3]; extracted NVCMs, 100 pmol/106 cells, 10 h",103.3%
same,percentage of initial concentration in autosampler,"[3]; extracted buffer, 100 µM, 0 h",99.5%
same,percentage of initial concentration in autosampler,"[3]; extracted buffer, 100 µM, 8 h",92.9%
same,percentage of initial concentration in autosampler,"[3]; extracted buffer, 100 µM, 10 h",92.8%
same,percentage of initial concentration in autosampler,"[3]; extracted plasma, 100 µM, 0 h",101.5%
same,percentage of initial concentration in autosampler,"[3]; extracted plasma, 100 µM, 8 h",102.1%
same,percentage of initial concentration in autosampler,"[3]; extracted plasma, 100 µM, 10 h",102.7%
